Consider seven compounds from patent publication US9975888B2, “Aryl linked imidazole and triazole derivatives and methods of use thereof for improving the pharmacokinetics of a drug” (MERCK SHARP & DOHME CORP., priority 2013, dated 2018).

Some results are limits rather than exact numbers.

What all share (assay type): biochemical
For experiment [1], the target named is T1, CYP2C9 (Homo sapiens, UniProt P11712).
T1 construct: 0.1 mg/mL protein human liver microsomes (BD Gentest); tissue BD Gentest; host or cells: human liver microsomes
Description: Cocktail assay for CYPs, diclofenac 4′-hydroxylation (CYP2C9), human liver microsomes. To be noted: 5 μM diclofenac, 0.1 mg/mL human liver microsomes, 10 min at 37° C.; read-out: CYP IC50 (nM) 2C9. The method, boiled down:
(§1)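 Pooled human liver microsomes (0.1 mg/mL) with probe cocktail incl. 5 μM diclofenac (CYP2C9) and 30 μM mephenytoin (CYP2C19), 1 mM NADPH, pH 7.4 phosphate buffer, 10 min at 37° C. Metabolites quantified by LC/MS/MS against internal standard; % inhibition versus no-inhibitor control, IC50 by non-linear regression.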
In general terms: Microsomes from liver hold many membrane-bound enzymes, among them those of drug oxidation.

In experiment [2] the target is T2, CYP3A4 (Homo sapiens, UniProt P08684). Description: Cocktail assay for CYPs, midazolam 1′-hydroxylation (CYP3A4), human liver microsomes. Set-up: 0.1 mg/mL protein human liver microsomes (BD Gentest); tissue BD Gentest; host or cells: human liver microsomes. The settings on record: 2 μM midazolam, 0.1 mg/mL human liver microsomes, 10 min at 37° C.; read-out: CYP IC50 (nM) 3A4 (MDZ). The method in brief:
(§2)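 Pooled human liver microsomes (0.1 mg/mL) with a probe cocktail of 10 μM phenacetin, 5 μM dextromethorphan and 2 μM midazolam plus NADPH, pH 7.4, 10 min at 37° C. Each metabolite was quantified by LC/MS/MS against a tolbutamide internal standard. IC50 came from % inhibition at 6 concentrations (e.g. 0.0032–10 μM) by non-linear regression.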
Target sequence in this assay (P08684 whole entry): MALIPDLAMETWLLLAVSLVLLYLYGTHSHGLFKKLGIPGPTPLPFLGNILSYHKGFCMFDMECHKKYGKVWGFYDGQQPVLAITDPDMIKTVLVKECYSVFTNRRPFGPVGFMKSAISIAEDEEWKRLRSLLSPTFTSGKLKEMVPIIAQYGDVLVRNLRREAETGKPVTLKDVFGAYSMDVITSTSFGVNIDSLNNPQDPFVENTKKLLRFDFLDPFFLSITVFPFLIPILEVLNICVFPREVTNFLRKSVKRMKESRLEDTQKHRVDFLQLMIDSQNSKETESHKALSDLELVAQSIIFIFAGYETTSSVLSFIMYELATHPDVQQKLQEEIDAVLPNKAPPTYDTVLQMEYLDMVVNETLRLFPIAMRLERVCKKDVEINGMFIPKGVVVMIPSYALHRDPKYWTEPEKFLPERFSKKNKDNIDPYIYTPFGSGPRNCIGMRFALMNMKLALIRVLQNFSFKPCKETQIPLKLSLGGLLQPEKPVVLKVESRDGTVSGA

Experiment [3] deals with T3, CYP1A2 (Homo sapiens, UniProt P05177).
T3 construct: 0.1 mg/mL protein human liver microsomes (BD Gentest); tissue BD Gentest; host or cells: human liver microsomes
T3 sequence (P05177 1-516): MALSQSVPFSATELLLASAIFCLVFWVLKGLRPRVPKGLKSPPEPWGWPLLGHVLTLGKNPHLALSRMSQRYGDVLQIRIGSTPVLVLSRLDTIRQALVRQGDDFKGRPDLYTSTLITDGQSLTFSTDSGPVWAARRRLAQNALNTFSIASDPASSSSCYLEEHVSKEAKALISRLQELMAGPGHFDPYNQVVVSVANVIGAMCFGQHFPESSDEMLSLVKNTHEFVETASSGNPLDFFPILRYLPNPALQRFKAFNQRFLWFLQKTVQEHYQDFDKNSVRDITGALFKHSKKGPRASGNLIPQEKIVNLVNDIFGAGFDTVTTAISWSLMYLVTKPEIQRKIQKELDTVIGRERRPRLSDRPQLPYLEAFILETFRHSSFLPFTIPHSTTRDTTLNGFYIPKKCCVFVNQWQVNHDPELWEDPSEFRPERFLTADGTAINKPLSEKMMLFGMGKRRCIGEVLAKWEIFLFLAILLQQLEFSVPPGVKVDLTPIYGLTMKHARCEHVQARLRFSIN
Description: Cocktail assay for CYPs, phenacetin O-deethylation (CYP1A2), human liver microsomes. To be noted: 10 μM phenacetin, 0.1 mg/mL human liver microsomes, 10 min at 37° C.; read-out: CYP IC50 (nM) 1A2. The method, boiled down:
as §2

Experiment [4] deals with T4, CYP2C19 (Homo sapiens, UniProt P33261).
T4 construct: 0.1 mg/mL protein human liver microsomes (BD Gentest); tissue BD Gentest; host or cells: human liver microsomes
The experiment in a line: Cocktail assay for CYPs, mephenytoin 4′-hydroxylation (CYP2C19), human liver microsomes. To be noted: 30 μM mephenytoin, 0.1 mg/mL human liver microsomes, 10 min at 37° C.; read-out: CYP IC50 (nM) 2C19. The method in brief: as §1

Experiment [5] addresses T5, CYP2D6 (Homo sapiens, UniProt P10635).
T5 construct: 0.1 mg/mL protein human liver microsomes (BD Gentest); tissue BD Gentest; host or cells: human liver microsomes
The experiment in a line: Cocktail assay for CYPs, dextromethorphan O-demethylation (CYP2D6), human liver microsomes. To be noted: 5 μM dextromethorphan, 0.1 mg/mL human liver microsomes, 10 min at 37° C.; read-out: CYP IC50 (nM) 2D6. The method, boiled down:
as §2

The target of experiment [6] is T2, CYP3A4. The experiment in a line: IC50 vs CYP3A by inhibition of lopinavir metabolism in human liver microsomes. Set-up: 0.01 mg/mL protein human liver microsomes (BD Gentest); tissue BD Gentest; host or cells: human liver microsomes. The settings on record: 1.5 μM lopinavir, 0.01 mg/mL human liver microsomes, 8 min at 37° C.; read-out: CYP IC50 (nM) 3A4 (LPV). The method in brief:
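Human liver microsomes (0.01 mg/mL) with 1.5 μM lopinavir, 1 mM NADPH, 3.3 mM MgCl2 in 100 mM potassium phosphate pH 7.4, 8 min at 37 °C, six compound concentrations. Summed M2/M3/M4 hydroxy metabolites quantified by LC/MS/MS against tolbutamide; % inhibition normalised between no-inhibitor and 5 μM ketoconazole controls, IC50 by non-linear regression.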
Target sequence in this assay (P08684 2-503): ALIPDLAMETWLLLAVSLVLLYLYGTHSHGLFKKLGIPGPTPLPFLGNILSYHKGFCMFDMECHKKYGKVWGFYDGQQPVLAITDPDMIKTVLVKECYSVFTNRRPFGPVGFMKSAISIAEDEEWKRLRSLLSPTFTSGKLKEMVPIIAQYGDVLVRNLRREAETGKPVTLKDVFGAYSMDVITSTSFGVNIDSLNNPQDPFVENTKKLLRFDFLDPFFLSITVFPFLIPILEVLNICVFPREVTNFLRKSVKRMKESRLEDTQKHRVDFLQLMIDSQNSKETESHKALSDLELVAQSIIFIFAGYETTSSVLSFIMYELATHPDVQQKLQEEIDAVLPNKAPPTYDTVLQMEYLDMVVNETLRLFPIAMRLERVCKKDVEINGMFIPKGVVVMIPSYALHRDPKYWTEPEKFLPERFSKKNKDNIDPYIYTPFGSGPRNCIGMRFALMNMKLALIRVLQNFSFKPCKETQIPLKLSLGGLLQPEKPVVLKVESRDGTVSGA

T5 sequence (P10635 whole entry): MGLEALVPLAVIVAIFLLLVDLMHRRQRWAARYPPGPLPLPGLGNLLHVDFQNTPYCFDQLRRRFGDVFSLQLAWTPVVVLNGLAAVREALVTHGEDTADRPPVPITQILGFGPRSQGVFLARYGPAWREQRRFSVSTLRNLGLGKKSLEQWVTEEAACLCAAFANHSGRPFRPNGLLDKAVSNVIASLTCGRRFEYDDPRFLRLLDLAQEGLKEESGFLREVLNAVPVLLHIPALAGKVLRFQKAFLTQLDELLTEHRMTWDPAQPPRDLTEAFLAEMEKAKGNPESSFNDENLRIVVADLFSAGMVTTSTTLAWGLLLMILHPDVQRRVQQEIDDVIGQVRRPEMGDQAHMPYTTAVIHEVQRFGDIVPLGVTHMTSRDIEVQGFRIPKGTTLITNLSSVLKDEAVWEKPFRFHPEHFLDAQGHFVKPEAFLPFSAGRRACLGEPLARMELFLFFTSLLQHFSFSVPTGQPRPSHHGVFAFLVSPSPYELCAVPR
T1 sequence (P11712 whole entry): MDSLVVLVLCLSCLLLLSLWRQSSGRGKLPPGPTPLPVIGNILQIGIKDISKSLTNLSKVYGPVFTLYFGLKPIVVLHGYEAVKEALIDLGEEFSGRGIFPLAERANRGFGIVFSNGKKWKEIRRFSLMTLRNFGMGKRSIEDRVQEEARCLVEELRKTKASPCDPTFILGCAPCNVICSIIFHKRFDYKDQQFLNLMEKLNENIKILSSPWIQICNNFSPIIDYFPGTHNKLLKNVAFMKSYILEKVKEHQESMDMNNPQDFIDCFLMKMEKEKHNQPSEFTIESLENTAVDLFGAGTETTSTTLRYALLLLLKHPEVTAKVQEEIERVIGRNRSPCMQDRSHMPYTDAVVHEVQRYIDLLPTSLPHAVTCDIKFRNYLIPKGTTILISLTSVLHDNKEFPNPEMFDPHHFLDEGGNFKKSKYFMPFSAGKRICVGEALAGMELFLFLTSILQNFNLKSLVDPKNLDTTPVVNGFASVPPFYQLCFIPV
T4 sequence (P33261 whole entry): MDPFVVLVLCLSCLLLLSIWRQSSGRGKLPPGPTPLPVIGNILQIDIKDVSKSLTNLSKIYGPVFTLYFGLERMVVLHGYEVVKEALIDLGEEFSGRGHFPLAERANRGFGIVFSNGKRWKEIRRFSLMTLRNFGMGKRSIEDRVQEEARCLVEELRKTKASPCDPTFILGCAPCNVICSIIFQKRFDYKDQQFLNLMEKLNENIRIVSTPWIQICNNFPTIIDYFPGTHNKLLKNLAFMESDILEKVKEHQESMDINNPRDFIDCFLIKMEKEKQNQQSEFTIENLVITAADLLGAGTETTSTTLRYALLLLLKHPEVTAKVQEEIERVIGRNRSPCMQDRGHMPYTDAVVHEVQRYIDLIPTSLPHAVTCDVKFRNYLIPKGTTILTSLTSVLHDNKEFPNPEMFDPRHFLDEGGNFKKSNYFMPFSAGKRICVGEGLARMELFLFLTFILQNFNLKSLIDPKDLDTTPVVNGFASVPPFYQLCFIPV

In general, IC50 refers to the concentration at which inhibition is half-maximal. As for `O=S(=O)(NCc1ccccc1-c1cncn1CCc1ccc(F)cc1)c1cnc(N2CCN3C[C@H](O)C[C@H]3C2)s1` [Compound 19, N-(2-(1-(4-fluorophenethyl)-1H-imidazol-5-yl)benzyl)-2-((7R,8aS)-7-hydroxyhexahydropyrrolo[1,2-a]pyrazin-2 (1H)-yl)thiazole-5-sulfonamide], the IC50 is 6270 nM in experiment [1]; 9.5 nM in experiment [2]; greater than 10000 nM in experiment [3]; greater than 10000 nM in experiment [4]; 3200 nM in experiment [5]; 16.4 nM in experiment [6].

On to `O=S(=O)(c1ccc(N2CCN(CCO)CC2)nc1)N1CCCC1c1ccccc1-c1cncn1CCc1ccc(F)cc1` (single isomer, unassigned) [Compound 35b, (R or S)-2-(4-(5-((2-(2-(1-(4-fluorophenethyl)-1H-imidazol-5-yl)phenyl)pyrrolidin-1-yl)sulfonyl)pyridin-2-yl)piperazin-1-yl)ethanol], for which the IC50 in experiment [1] is 6930 nM; in experiment [2], 4 nM; in experiment [3], greater than 10000 nM; in experiment [4], 9720 nM; in experiment [5] it was 3060 nM; in experiment [6], 0.9 nM.

Regarding `CC(c1ccccc1-c1cncn1CCc1ccc(F)cc1)N(C)S(=O)(=O)c1cnc(N2CCN(C)CC2)s1` (stereo not drawn) [Compound 4, N-(1-(2-(1-(4-fluorophenethyl)-1H-imidazol-5-yl)phenyl)ethyl)-N-methyl-2-(4-methylpiperazin-1-yl)thiazole-5-sulfonamide], the IC50 is 2200 nM in experiment [1]; 12 nM in experiment [2]; greater than 10000 nM in experiment [3]; 6700 nM in experiment [4]; 5110 nM in experiment [5]; 9 nM in experiment [6].

For `O=C(NCc1ccc(S(=O)(=O)N2CCCC2c2cccc(-c3cncn3CCc3ccc(F)cc3)c2)s1)c1ccccc1` (single isomer, unassigned) [Compound 55a, (R or S)-N-((5-((2-(3-(1-(4-fluorophenethyl)-1H-imidazol-5-yl)phenyl)pyrrolidin-1-yl)sulfonyl)thiophen-2-yl)methyl) benzamide], the IC50 in experiment [1] was 61.6 nM; in experiment [2] it was 6.63 nM; in experiment [3] it was 1080 nM; in experiment [4], 219 nM; in experiment [5] it was 139 nM; in experiment [6], 0.84 nM.

Consider `CC(C)OC(=O)N1CCCC1c1cccc(-c2cncn2CCc2ccc(F)cc2)c1` (stereo not drawn) [Compound 56, Isopropyl 2-(3-(1-(4-fluorophenethyl)-1H-imidazol-5-yl)phenyl) pyrrolidine-1-carboxylate], for which the 50% inhibitory concentration (IC50) in experiment [1] was determined as 798 nM; in experiment [2] it was 18.8 nM; in experiment [3], 3400 nM; in experiment [4] it was 452 nM; in experiment [5], 4150 nM; in experiment [6] it was 11.8 nM.

On to `CC(C)OC(=O)N1CCCC1c1ccccc1-c1cncn1CCc1ccc(F)cc1` (single isomer, unassigned) [Compound 39b, (R or S)-isopropyl 2-(2-(1-(4-fluorophenethyl)-1H-imidazol-5-yl)phenyl) pyrrolidine-1-carboxylate], for which the IC50 is 6380 nM in experiment [1]; 34.5 nM in experiment [2]; greater than 10000 nM in experiment [3]; 4740 nM in experiment [4]; 8580 nM in experiment [5]; 28.2 nM in experiment [6].

With `O=S(=O)(c1ccc(N2CCC(O)CC2)nc1)N1CCCC1c1cccc(-c2cncn2CCc2ccc(F)cc2)c1` (single isomer, unassigned) [Compound 57a, (R or S)-1-(5-((2-(3-(1-(4-fluorophenethyl)-1H-imidazol-5-yl)phenyl)pyrrolidin-1-yl)sulfonyl)pyridin-2-yl) piperidin-4-ol], the IC50 was determined as 365 nM in experiment [1]; 10.4 nM in experiment [2]; 367 nM in experiment [3]; 331 nM in experiment [4]; 2200 nM in experiment [5]; 3.7 nM in experiment [6].
